One test deals with T1, AiiADH82.
T1 construct: gene aiiA; full length, pET28a NdeI/XhoI, His6 at N- and C-terminus, E. coli BL21, Ni-NTA; primer-encoded start MTVKKLYF
As to the kind of experiment: UPLC-QTOF MS of residual AHL (m/z […]), Lineweaver-Burk. Type of test: biochemical, Bacillus velezensis. Particulars: pH 6.5, 28 °C, 45 min; substrate 200-350 µM (far below the printed Km).

The target in another test is T2, YtnPDH82 (Bacillus velezensis, UniProt A7Z7T2).
T2 construct: gene RBAM_027000; full length, pET28a EcoRI/XhoI, His6 at N- and C-terminus, E. coli BL21, Ni-NTA; primer-encoded start METLNIGNF
T2 sequence (A7Z7T2 entry or part of it): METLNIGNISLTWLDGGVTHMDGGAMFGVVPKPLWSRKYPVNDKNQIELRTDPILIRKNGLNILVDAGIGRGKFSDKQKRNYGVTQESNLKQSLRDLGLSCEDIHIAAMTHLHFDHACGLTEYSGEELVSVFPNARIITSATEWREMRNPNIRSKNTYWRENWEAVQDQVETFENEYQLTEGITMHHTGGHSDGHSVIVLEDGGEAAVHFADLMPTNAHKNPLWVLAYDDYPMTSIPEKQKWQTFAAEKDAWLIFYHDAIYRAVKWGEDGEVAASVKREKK
Described as above. Particulars: pH 6.5, 28 °C, 45 min; substrate 200-350 µM (far below the printed Km). In kind it is biochemical.

For `CCCC(=O)CC(=O)N[C@H]1CCOC1=O` [3-oxo-C6-HSL], the results for the Michaelis constant (Km) with AiiADH82 and at YtnPDH82 were 7.8 mM and 15.3 mM, respectively.

(Values after publication PMC12388617, “Development and Biochemical Characterization of Quorum Quenching Enzyme from Deep-Sea Bacillus velezensis DH82” (Microorganisms, 2025).)
